Test results as given in US20240360148A1 (SUVALENT THERAPEUTICS, INC., priority 2021, published 2024).

Experiments:
SAE1 = SAE1 (Homo sapiens (Human), UniProt Q9UBE0+Q9UBT2); test: SAE High Throughput Biochemical Assay (HTRF), 15 min preincubation; details: read-out: 15 min preincubation HTRF IC50 (μM) Ave, SAE1 12.5 nM, ATP 100 μM
Summary of the method: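 SAE1 (12.5 nM) was preincubated with compound for 15 min at RT in HEPES pH 7.5, 0.1% BSA, 10 mM MgCl2. The reaction was then started with SUMO-GST and UBC9-His (40 nM each) plus 100 μM ATP for 45 min. After KF stop, HTRF (anti-GST-XL665/anti-His-EuK) was read at 2 h and overnight; some compounds were tested singly at 25 micromolar as percent of control.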

[1] = test system: sumoylation levels (SUMO 2/3 conjugates) in HCT-116 cells; test: HCT-116 4 Hour Cell Assay (Western, SUMO 2/3 conjugates); format: cell-based; details: Homo sapiens, HCT-116, 4 h, 4 h treatment, Anti-Sumo 2-3 immunoblot, read-out: HCT-116 Western 4 h IC50 (μM) Ave
Protocol: This protocol describes the procedures used to assess the effects of compounds of interest on sumoylation levels. Immunoblot of SUMO 2/3 conjugates are performed and IC50 curves are generated upon quantification of sumoylations bands. HCT-116 cells are seeded in a 12 well plate (500,000 cells/well). The following day the cells are treated with compounds of interest (resuspended in DMSO) for 4 hours (11 concentrations with a three-fold dilution; starting concentration 25 μM) Following 4 hours of incubation the cells are washed with ice cold PBS 1×and protein extraction is performed with RIPA buffer supplemented with phosphatases and proteases inhibitors, 25 mM of NEM and 50 units/mL of Benzonase. Samples undergo centrifugation at 13,000 RPM, 4° C., for 10 minutes and the supernatant is collected. Protein quantification is performed using BCA. Non-Reducing Laemmli Buffer is added to the samples. Samples are heated at 75° C. for 10 minutes, and are centrifuged for 3 minutes at 9000 RPM Nupage 4-12% Bis Tris gels and 1× MOPS buffer (Fisher Scientific)+1× NuPAGE Antioxidant (Invitrogen) are used to perform the SDS-PAGE gel electrophoresis (20 to 40 μg of proteins are loaded in the gels). Proteins are then transferred to PVDF membranes and the level of total proteins are measured by staining with Revert Total Protein Stain and the fluorescent bands are acquired using the LI-COR FC (700 nm for 1 min) Membranes are blocked for 5 minutes with Bio-Rad Blocking Buffer and are subsequently incubated over night at 4° C. with Anti-Sumo 2-3 mAb (M BL #M114-3, 1:1000 in Bio-Rad Blocking Buffer, 0.2% Tween 20) Membranes are washed with 1×TBS-T (3 times for 5 minutes) and sumoylation is detected using Li-cor IRDye 800CW Goat anti-Mouse IgG secondary antibody (1:10,000 dilution) upon 1 hour of incubation in blocking buffer with 0.2% Tween 20 and 0.01% SDS. After the incubation, the membranes are washed with 1×TBS-T (3 times for 5 minutes). To visualize the fluorescent bands the membranes are scanned with LI-COR FC (700 nm for 1 min and […] for 2 mins). Sumoylation levels are quantified upon normalization with total protein levels, using the LI-COR Image Studio Lite 5.2 Software.

Chain of SAE1 (Q9UBE0 whole entry): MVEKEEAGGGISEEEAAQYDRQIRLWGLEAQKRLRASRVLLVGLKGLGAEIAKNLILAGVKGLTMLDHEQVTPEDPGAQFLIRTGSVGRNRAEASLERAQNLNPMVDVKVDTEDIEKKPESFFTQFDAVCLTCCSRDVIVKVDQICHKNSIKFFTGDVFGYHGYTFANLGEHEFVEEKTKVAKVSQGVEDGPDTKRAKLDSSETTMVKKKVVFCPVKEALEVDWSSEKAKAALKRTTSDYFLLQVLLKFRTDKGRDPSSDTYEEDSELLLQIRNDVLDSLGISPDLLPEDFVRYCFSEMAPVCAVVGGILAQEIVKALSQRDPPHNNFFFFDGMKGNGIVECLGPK
Chain of SAE1 (Q9UBT2 whole entry): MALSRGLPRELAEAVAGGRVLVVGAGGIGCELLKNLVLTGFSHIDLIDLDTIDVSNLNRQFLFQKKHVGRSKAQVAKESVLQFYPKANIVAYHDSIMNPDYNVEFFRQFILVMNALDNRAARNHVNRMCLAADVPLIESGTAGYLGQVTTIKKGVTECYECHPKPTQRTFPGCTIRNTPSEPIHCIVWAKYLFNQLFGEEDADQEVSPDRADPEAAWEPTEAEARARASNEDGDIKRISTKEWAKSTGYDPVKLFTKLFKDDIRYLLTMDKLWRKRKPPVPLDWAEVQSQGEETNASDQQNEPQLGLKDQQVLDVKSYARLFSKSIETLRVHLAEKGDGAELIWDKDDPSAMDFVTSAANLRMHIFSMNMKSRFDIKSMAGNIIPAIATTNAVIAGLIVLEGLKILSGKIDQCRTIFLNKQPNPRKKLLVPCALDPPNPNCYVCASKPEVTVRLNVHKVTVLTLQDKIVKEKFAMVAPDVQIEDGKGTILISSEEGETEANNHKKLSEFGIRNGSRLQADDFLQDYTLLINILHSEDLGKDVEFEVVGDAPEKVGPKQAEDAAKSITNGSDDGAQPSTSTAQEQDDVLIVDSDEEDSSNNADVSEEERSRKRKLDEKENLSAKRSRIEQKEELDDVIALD

Compound | IC50 [1] | IC50 (SAE1)
CCn1cc(-c2ccccc2[C@@H]2CN(C(=O)/C=C/[C@@H]3C[C@@H]4C[C@@H]4N3)Cc3sc(C#N)cc32)c(C(F)(F)F)n1 [Example 117, (S)-6-((E)-3-((1S,3S,5S)-2-Azabicyclo[3.1.0]hexan-3-yl)acryloyl)-4-(2-(1-ethyl-3-(trifluoromethyl)-1H pyrazol-4-yl)phenyl)-4,5,6,7-tetrahydrothieno[2,3-c]pyridine-2-carbonitrile] | 0.427 µM | 1.16 µM
CCn1cc(-c2c(F)cccc2[C@@H]2CN(C(=O)/C=C/CN)Cc3sc(C#N)cc32)c(C(F)(F)F)n1 [Example 51, (S)-6-((E)-4-aminobut-2-enoyl)-4-((S)-2-(1-ethyl-3-(trifluoromethyl)-1 H-pyrazol-4-yl)-3-fluorophenyl)-4,5,6,7-tetrahydrothieno[2,3-c]pyridine-2-carbonitrile] | 0.569 µM | 1.29 µM
CCn1cc(-c2ccccc2[C@@H]2CN(C(=O)/C=C/[C@@H]3CCCCN3)Cc3sc(C#N)cc32)c(C(F)(F)F)n1 [Example 115, (S)-4-(2-(1-Ethyl-3-(trifluoromethyl)-1H pyrazol-4-yl)phenyl)-6-((E)-3-((S)-piperidin-2-yl)acryloyl)-4,5,6,7-tetrahydrothieno[2,3-c]pyridine-2-carbonitrile] | 0.6 µM | 1.95 µM
CCn1cc(-c2c(F)cccc2[C@@H]2CN(C(=O)/C=C/C3CC[C@@H](C)N3)Cc3sc(C#N)cc32)c(C(F)(F)F)n1 (stereo in doubt) [Example 93, (S)-4-(2-(1-ethyl-3-(trifluoromethyl)-1H pyrazol-4-yl)-3-fluorophenyl)-6-((E)-3-((2S,5R)-5-methylpyrrolidin-2-yl)acryloyl)-4,5,6,7-tetrahydrothieno[2,3-c]pyridine-2-carbonitrile] | 0.145 µM | 0.76 µM
Cc1c(C#N)sc2c1[C@H](c1cccc(F)c1-c1c[nH]nc1C(F)(F)F)CN(C(=O)/C=C/CN(C)C)C2 [Compound 221] | 0.134 µM | 0.347 µM
CN(C)C/C=C/C(=O)N1Cc2sc(C#N)cc2[C@H](c2ccccc2-c2cn(CCF)nc2C(F)(F)F)C1 [Example 17, (S,E)-6-(4-(dimethylamino)but-2-enoyl)-4-(2-(1-(2-fluoroethyl)-3-(trifluoromethyl)-1 H-pyrazol-4-yl)phenyl)-4,5,6,7-tetrahydrothieno[2,3-c]pyridine-2-carbonitrile] | 0.269 µM | 2.47 µM
CCn1cc(-c2c(C(F)F)cccc2C2CN(C(=O)/C=C/CN(C)C)Cc3sc(C#N)cc32)c(C(F)(F)F)n1 (stereo not shown) [Compound 241] | 0.445 µM | 5.52 µM
CCn1cc(-c2c(F)cccc2C2CN(C(=O)/C=C/CN(C)C)Cc3sc(C#N)cc32)c(C(F)(F)F)n1 (stereo not shown) [Compound 234] | 0.339 µM | 2.23 µM
CCn1cc(-c2c(F)cccc2[C@@H]2CN(C(=O)/C=C/[C@@H]3C[C@@H](F)CN3)Cc3sc(C#N)cc32)c(C(F)(F)F)n1 [Example 121, (S)-4-(2-(1-Ethyl-3-(trifluoromethyl)-1H pyrazol-4-yl)-3-fluorophenyl)-6-((E)-3-((2S,4R)-4-fluoropyrrolidin-2-yl)acryloyl)-4,5,6,7-tetrahydrothieno[2,3-c]pyridine-2-carbonitrile] | 0.577 µM | 0.43 µM
CCn1cc(-c2ccccc2[C@@H]2CN(C(=O)/C=C/CNC(C)C)Cc3sc(C#N)cc32)c(C(F)(F)F)n1 [Example 105, (S,E)-4-(2-(1-Ethyl-3-(trifluoromethyl)-1 H-pyrazol-4-yl)phenyl)-6-(4-(isopropylamino)but-2-enoyl)-4,5,6,7-tetrahydrothieno[2,3-c]pyridine-2-carbonitrile] | 0.62 µM | 2.42 µM
CCCCNC/C=C/C(=O)N1Cc2sc(C#N)cc2[C@H](c2ccccc2-c2cn(CC)nc2C(F)(F)F)C1 [Example 103, (S, E)-6-(4-(Butylamino)but-2-enoyl)-4-(2-(1-ethyl-3-(trifluoromethyl)-1 H-pyrazol-4-yl)phenyl)-4,5,6,7-tetrahydrothieno[2,3-c]pyridine-2-carbonitrile] | 1.66 µM | 2.66 µM
CCn1cc(-c2ccccc2[C@@H]2CN(C(=O)/C=C/[C@H](C)NC)Cc3sc(C#N)cc32)c(C(F)(F)F)n1 [Example 84, (S)-4-(2-(1-Ethyl-3-(trifluoromethyl)-1 H pyrazol-4-yl)phenyl)-6-((S, E)-4-(methylamino)pent-2-enoyl)-4,5,6,7-tetrahydrothieno[2,3-c]pyridine-2-carbonitrile] | 0.503 µM | 2.79 µM
CCn1cc(-c2ccccc2[C@@H]2CN(C(=O)/C=C/C3CCCN3)Cc3sc(C#N)cc32)c(C(F)(F)F)n1 (stereo partly drawn) [Example 107, (4S)-4-(2-(1-Ethyl-3-(trifluoromethyl)-1 H-pyrazol-4-yl)phenyl)-6-((E)-3-(pyrrolidin-2-yl)acryloyl)-4,5,6,7-tetrahydrothieno[2,3-c]pyridine-2-carbonitrile] | 0.226 µM | 2.07 µM

The next lines start with results.

IC50 [1] | Compound | IC50 (SAE1)
0.543 µM | CCn1cc(-c2ccccc2[C@@H]2CN(C(=O)/C=C/CN)Cc3sc(C#N)cc32)c(C(F)(F)F)n1 [Example 125, (S, E)-6-(4-Aminobut-2-enoyl)-4-(2-(1-ethyl-3-(trifluoromethyl)-1 H-pyrazol-4-yl)phenyl)-4,5,6,7-tetrahydrothieno[2,3-c]pyridine-2-carbonitrile] | 1.23 µM
0.483 µM | CCn1cc(-c2c(F)cccc2[C@@H]2CN(C(=O)/C=C/CNC34CC(C3)C4)Cc3sc(C#N)cc32)c(C(F)(F)F)n1 [Example 246, (S, E)-6-(4-(bicyclo[1.1.1]pentan-1-ylamino)but-2-enoyl)-4-(2-(1-ethyl-3-(trifluoromethyl)-1 H-pyrazol-4-yl)-3-fluorophenyl)-4,5,6,7-tetrahydrothieno[2,3-c]pyridine-2-carbonitrile] | 1.65 µM
8.85 µM | CCn1cc(-c2cc(NS(C)(=O)=O)ccc2C2CN(C(=O)/C=C/CN(C)C)Cc3sc(C#N)cc32)c(C(F)(F)F)n1 (stereo not shown) [Example 193, (E)-N-(4-(2-Cyano-6-(4-(dimethylamino)but-2-enoyl)-4,5,6,7-tetrahydrothieno[2,3-c]pyridin-4-yl)-3-(1-ethyl-3-(trifluoromethyl)-1 H-pyrazol-4-yl)phenyl)methanesulfonamide] | 9.08 µM
0.288 µM | CC[C@H]1CNC(/C=C/C(=O)N2Cc3sc(C#N)cc3[C@H](c3cccc(F)c3-c3cn(CC)nc3C(F)(F)F)C2)C1 (stereo partly drawn) [Example 252, (S)-4-((S)-2-(1-ethyl-3-(trifluoromethyl)-1 H-pyrazol-4-yl)-3-fluorophenyl)-6-((E)-3-((2S,4R)-4-ethylpyrrolidin-2-yl)acryloyl)-4,5,6,7-tetrahydrothieno[2,3-c]pyridine-2-carbonitrile] | 0.39 µM
1.46 µM | CCn1cc(-c2c(Cl)cccc2C2CN(C(=O)/C=C/CN(C)C)Cc3sc(C#N)cc32)c(C(F)(F)F)n1 (stereo not shown) [Example 201, (E)-4-(3-Chloro-2-(1-ethyl-3-(trifluoromethyl)-1 H-pyrazol-4-yl)phenyl)-6-(4-(dimethylamino)but-2-enoyl)-4,5,6,7-tetrahydrothieno[2,3-c]pyridine-2-carbonitrile] | 1.56 µM
0.97 µM | CCn1cc(-c2ccccc2[C@@H]2CN(C(=O)C#CC3CCCN3)Cc3sc(C#N)cc32)c(C(F)(F)F)n1 (stereo partly drawn) [Example 139, (4S)-4-(2-(1-Ethyl-3-(trifluoromethyl)-1 H pyrazol-4-yl)phenyl)-6-(3-(pyrrolidin-2-yl)propioloyl)-4,5,6,7-tetrahydrothieno[2,3-c]pyridine-2-carbonitrile] | 0.07 µM
0.321 µM | C#CCn1cc(-c2ccccc2[C@@H]2CN(C(=O)/C=C/CN(C)C)Cc3sc(C#N)cc32)c(C(F)(F)F)n1 [Example 155, (S, E)-6-(4-(Dimethylamino)but-2-enoyl)-4-(2-(1-(prop-2-yn-1-yl)-3-(trifluoromethyl)-1 H-pyrazol-4-yl)phenyl)-4,5,6,7-tetrahydrothieno[2,3-c]pyridine-2-carbonitrile] | 3.52 µM
